Like-named read-outs stand apart in the source and are kept apart here.
Columns and labels:
Format in all cases: cell-based
RSV A2 strain = assay: RSV A2-induced CPE in Hep2 cells; conditions: human respiratory syncytial virus; for IC50: HEp-2, 120 h, read-out: RSV A2 CPE IC50; for inhibition at 0.01 µg/mL: at 0.01 μg/mL (footnote 2)
Experimental: (§1) Biological Testing: Experimental Methods Assessment of RSV Induced CPE in Hep2 Cells
(§2) Hep2 cells were seeded (10^3/well/50 μL) in 384-well plates (Catalogue number 353962, BD Falcon, Oxford, UK) in 5% serum free-DMEM containing 2 mM L-glutamine and 1 mM sodium pyruvate one day before infection. RSV A2 strain (#0709161v, NCPV, Public Health England, Wiltshire) or RSV B Washington strain (VR-1580, ATCC, Manassas, Va. 20108) virus solutions were prepared in serum free-DMEM with 2 mM L-glutamine and 1 mM sodium pyruvate, and then added (50 μL/well) to achieve a final virus concentration of 1 MOI for RSV A and 0.1MOI for RSV B. Simultaneously test compounds (0.5 μL DMSO solution) were added to 100 μL of Hep2 cell culture with virus solution to provide a final DMSO solution of 0.5%. Plates were incubated (37° C./5% CO2) for 5 days for studies using RSV A2 strain or 6 days for those using RSV B strain, and then resazurin sodium salt (5 μL of 0.03% solution; Sigma-Aldrich, Dorset, UK) was added to each well and the plate incubated for a further 6 hr (37° C. and 5% CO2). The fluorescence of each well [545 nm (excitation)/590 nm (emission)] was determined using a multi-scanner (Clariostar: BMG, Buckinghamshire, UK). The percentage inhibition for each well was calculated and the IC50, IC75 and IC90 values were calculated from the concentration-response curve generated for each test compound.

[1] = tested on: RSV A2 F-protein expression; assay: RSV A2 F-protein expression in BEAS2B bronchial epithelial cells; conditions: human respiratory syncytial virus, BEAS-2B, 72 h, read-out: RSV A2 F-protein IC50
Experimental: Assessment of RSV F Protein Expression in BEAS2B Bronchial Epithelial Cells
An early event which follows the infection of epithelial cells by RSV is the expression of RSV F-protein on the cells' surface. BEAS2B cells (SV40-immortalised human bronchial epithelial cell line) were grown in 96 well plates. Once more than 70% confluent, cells were infected with RSV A2 (#0709161v, NCPV, Public Health England, Wiltshire) at an MOI of 0.01 in clear RPMI-1640 medium (Life technologies, Paisley, UK) with 2% FBS (Life technologies, Paisley, UK), and incubated for 3 days (37° C./5% CO2).
Supernatant was aspirated and the cells were fixed with 4% formaldehyde (100 μL in PBS solution) for 20 min, washed 3 times with washing buffer (200 μL; PBS containing 0.05% Tween-20) and incubated with blocking solution (100 μL; 5% Marvel milk in PBS) for 1 hr. Cells were then washed with washing buffer (200 μL) and incubated for 1 hr at 37° C. with anti-RSV (2F7; mouse monoclonal, lot 160290, Cat. No. ab43812, Abcam plc, Cambridge, UK) F-fusion protein antibody (50 μL; prepared at a 1:1000 dilution in 5% milk/PBS-tween). After washing, cells were incubated with an HRP-conjugated anti-mouse IgG antibody (50 μL prepared at a 1:2000 dilution in 5% milk in PBS; lot 00095437, Cat. No. P0447, Dako UK Ltd, Cambridgeshire, UK) for 1 hr. Cells were washed twice with washing buffer and once with PBS. TMB substrate (100 μL; substrate reagent pack lot 320436, Cat. No. DY999, R&D Systems, Inc. Abingdon, UK) was then added and the reaction was stopped by the addition of aq sulfuric acid (50 μL; 2N). The resultant signal was determined colourimetrically (OD: 450 nm with a reference wavelength of 655 nm) in a microplate reader (Multiskan FC®, ThermoFisher Scientific). Cells were then washed and 1% crystal violet solution (50 μL; lot SLB4576, Cat. No. HT90132-1L, Sigma-Aldrich) was applied for 30 min. After washing with PBS (200 μL) 3 times, 1% SDS (100 μL) was added to each well, and plates were shaken lightly for 1 hr prior to reading the absorbance at 595 nm. The measured OD450-655 readings were corrected for cell number by dividing the OD450-655 by the OD595 readings. The percentage inhibition for each well was calculated and the IC50 value derived from the concentration-response curve generated for each test compound.

[2] = Cell viability: resazurin assay in Hep2 cells; conditions: human, 5 days incubation
Experimental: Cell Viability: Resazurin Assay Hep2 cells were seeded in 384-well plates (10^3/well/50 μL; BD Falcon Ref 353962) in FBS DMEM (5%, containing 2 mM L-glutamine and 1 mM sodium pyruvate) one day before experimentation. Serum-free DMEM (50 μL) was added to test wells while for control wells the media was removed and sterile water (100 μL) was added. Test compounds (0.5 μL DMSO solution) were added to give a final DMSO concentration of 0.5%. Hep2 cells were incubated with each test compound for 5 days (37° C./5% CO2 in 5% FBS) and then resazurin stock solution (5 μL; 0.03%) was added to each well and the plate incubated further for a further 6 hrs (37° C./5% CO2). The fluorescence of each well at 545 nm (excitation) and 590 nm (emission) was determined using a multi-scanner (Clariostar: BMG Labtech). The percentage loss of cell viability was calculated for each well relative to vehicle (0.5% DMSO) treatment. Where appropriate, a CC50 value was calculated from the concentration-response curve generated from the concentration-response curve for each test compound.

RSV B Washington strain = assay: RSV B-induced CPE in Hep2 cells; conditions: human respiratory syncytial virus; for IC50: HEp-2, 144 h, read-out: RSV B CPE IC50
Experimental: as §1, §2

[3] = Hep2 cells, RSV A2 1 MOI, 5 days, resazurin
[4] = HEp-2, Hep2 cells, read-out: RSV A2 CPE % Inhibition
[5] = Hep2 cells, RSV B Washington 0.1 MOI, 6 days, resazurin
[6] = HEp-2, Hep2 cells, at 1 μg/mL, read-out: RSV B CPE % Inhibition
[7] = HEp-2, Hep2 cells, at 0.1 μg/mL, read-out: RSV A2 CPE % Inhibition

Row | Structure (SMILES) | IC50 (RSV A2 strain; [3]) | inhibition at 0.01 µg/mL (RSV A2 strain; [4]) | IC50 [1] | CC50 at 5 days [2] | IC50 (RSV B Washington strain; [5]) | inhibition at 1 µg/mL (RSV B Washington strain; [6]) | inhibition at 0.1 µg/mL (RSV A2 strain; [7]) | IC50 (RSV A2 strain) | inhibition at 0.1 µg/mL (RSV A2 strain; HEp-2, read-out: RSV A2 CPE % Inhibition) | IC50 (RSV B Washington strain) | inhibition at 1 µg/mL (RSV B Washington strain; HEp-2, read-out: RSV B CPE % Inhibition)
1 | Cc1cnc(N2CC3(CCOCC3)C2)c(C(=O)Nc2ccc(C(=O)N3CCc4cc(-c5nc6cccc(F)c6[nH]5)sc4-c4ccccc43)cc2)c1 [Example 14, N-(4-(2-(7-fluoro-1H-benzo[d]imidazol-2-yl)-5,6-dihydro-4H-benzo[b]thieno[2,3-d]azepine-6-carbonyl)phenyl)-5-methyl-2-(7-oxa-2-azaspiro[3.5]nonan-2-yl)nicotinamide] | 0.24 nM | 93% | 0.31 nM | > 14300 nM | 0.99 nM | 100% | – | – | – | – | –
2 | C#Cc1cnc(N2CC3(CCOCC3)C2)c(C(=O)Nc2ccc(C(=O)N3CCc4cc(-c5nc6ccccc6[nH]5)sc4-c4ccccc43)cc2)c1 [Example 5, N-(4-(2-(1H-Benzo[d]imidazol-2-yl)-5,6-dihydro-4H-benzo[b]thieno[2,3-d]azepine-6-carbonyl)phenyl)-5-ethynyl-2-(7-oxa-2-azaspiro[3,5]nonan-2-yl)nicotinamide] | 6.9 nM | 100% | 0.11 nM | > 14500 nM | 36.1 nM | 92% | – | – | – | – | –
3 | Cc1ccc(C(=O)Nc2ccc(C(=O)N3CCc4cc(-c5nc6ccccc6[nH]5)sc4-c4ccccc43)cc2)c(N2CC3(CCOCC3)C2)n1 [Example 2, N-(4-(2-(1H-Benzo[d]imidazol-2-yl)-5,6-dihydro-4H-benzo[b]thieno[2,3-d]azepine-6-carbonyl)phenyl)-6-methyl-2-(7-oxa-2-azaspiro[3,5]nonan-2-yl)nicotinamide] | 0.23 nM | 90% | 1.6 nM | > 14700 nM | 9.6 nM | 100% | – | – | – | – | –
4 | N#Cc1cccc2nc(-c3cc4c(s3)-c3ccccc3N(C(=O)c3ccc(NC(=O)c5cccnc5N5CC6(CCOCC6)C5)cc3)CC4)[nH]c12 [Example 12, N-(4-(2-(7-cyano-1H-benzo[d]imidazol-2-yl)-5,6-dihydro-4H-benzo[b]thieno[2,3-d]azepine-6-carbonyl)phenyl)-2-(7-oxa-2-azaspiro[3.5]nonan-2-yl)nicotinamide] | 0.94 nM | – | 0.21 nM | > 14500 nM | 111 nM | 100% | 100% | – | – | – | –
5 | O=C(Nc1ccc(C(=O)N2CCc3cc(-c4nc5ccccc5[nH]4)sc3-c3ccccc32)cc1)c1cc(C2CC2)cnc1N1CC2(CCOCC2)C1 [Example 6, N-(4-(2-(1H-Benzo[d]imidazol-2-yl)-5,6-dihydro-4H-benzo[b]thieno[2,3-d]azepine-6-carbonyl)phenyl)-5-cyclopropyl-2-(7-oxa-2-azaspiro[3,5]nonan-2-yl)nicotinamide] | 2.6 nM | 100% | 0.22 nM | > 14100 nM | 14.9 nM | 100% | – | – | – | – | –
6 | Cc1cccc2nc(-c3cc4c(s3)-c3ccccc3N(C(=O)c3ccc(NC(=O)c5cccnc5N5CC6(CCOCC6)C5)cc3)CC4)[nH]c12 [Example 1, N-(4-(2-(7-Methyl-1H-benzo[d]imidazol-2-yl)-5,6-dihydro-4H-benzo[b]thieno[2,3-d]azepine-6-carbonyl)phenyl)-2-(7-oxa-2-azaspiro[3.5]nonan-2-yl)nicotinamide] | – | – | – | > 14700 nM | – | – | – | 0.21 nM | 100% | 84.7 nM | 100%
7 | O=C(Nc1ccc(C(=O)N2CCc3cc(-c4nc5cccc(F)c5[nH]4)sc3-c3ccccc32)cc1)c1cccnc1N1CC2(CCOCC2)C1 [Example 8, N-(4-(2-(7-fluoro-1H-benzo[d]imidazol-2-yl)-5,6-dihydro-4H-benzo[b]thieno[2,3-d]azepine-6-carbonyl)phenyl)-2-(7-oxa-2-azaspiro[3.5]nonan-2-yl)nicotinamide] | 0.18 nM | – | – | > 14600 nM | 26.8 nM | 100% | 100% | – | – | – | –
8 | O=C(Nc1ccc(C(=O)N2CCc3cc(-c4nc5ccccc5[nH]4)sc3-c3ccccc32)cc1)c1cccnc1N1CC2(CCOCC2)C1 [Example 7] | 0.12 nM | – | 0.94 nM | > 15000 nM | 28.7 nM | 100% | 100% | – | – | – | –
9 | Cc1ccc(C(=O)Nc2ccc(C(=O)N3CCc4cc(-c5nc6cccc(F)c6[nH]5)sc4-c4ccccc43)cc2)c(N2CC3(CCOCC3)C2)n1 [Example 20, N-(4-(2-(7-fluoro-1H-benzo[d]imidazol-2-yl)-5,6-dihydro-4H-benzo[b]thieno[2,3-d]azepine-6-carbonyl)phenyl)-6-methyl-2-(7-oxa-2-azaspiro[3.5]nonan-2-yl)nicotinamide] | 0.094 nM | – | – | > 14300 nM | 7.6 nM | 100% | 100% | – | – | – | –
10 | Cc1cc(C(=O)Nc2ccc(C(=O)N3CCc4cc(-c5nc6cccc(C#N)c6[nH]5)sc4-c4ccccc43)cc2)c(N2CC3(CCOCC3)C2)nc1C [Example 25, N-(4-(2-(7-cyano-1H-benzo[d]imidazol-2-yl)-5,6-dihydro-4H-benzo[b]thieno[2,3-d]azepine-6-carbonyl)phenyl)-5,6-dimethyl-2-(7-oxa-2-azaspiro[3.5]nonan-2-yl)nicotinamide] | 0.69 nM | 100% | – | > 13900 nM | 15.8 nM | 100% | – | – | – | – | –
11 | Cc1cnc(N2CC3(CCOCC3)C2)c(C(=O)Nc2ccc(C(=O)N3CCc4cc(-c5nc6cccc(C(F)(F)F)c6[nH]5)sc4-c4ccccc43)cc2)c1 [Example 17, 5-methyl-2-(7-oxa-2-azaspiro[3.5]nonan-2-yl)-N-(4-(2-(7-(trifluoromethyl)-1H-benzo[d]imidazol-2-yl)-5,6-dihydro-4H-benzo[b]thieno[2,3-d]azepine-6-carbonyl)phenyl)nicotinamide] | 0.11 nM | – | – | > 13400 nM | 13.2 nM | 100% | 100% | – | – | – | –

Reference: patent US10160772B2, “5,6-dihydro-4H-benzo[b]thieno-[2,3-d]azepine derivatives” (PULMOCIDE LIMITED, priority 2014, dated 2018)
